Data reported in US20130203778A1, “PHARMACEUTICAL COMPOSITION COMPRISING A PYRIMIDINEONE DERIVATIVE” (Glenmark Pharmaceuticals S.A., priority 2010, published 2013).

Assays:
[1] = Solubility of Compound I with various hydrophilic carriers and in solid dispersion composition form at 25° C. (HPLC assay); assay type: physicochemical
Procedure: Buffers were prepared as per USP. Compound I (100 mg) equivalent was added to various buffers (100 ml) in presence of various hydrophilic carriers. The samples were sonicated for 15 minutes. A solid dispersion composition form of Compound I was also evaluated for solubility on similar lines. Quantification was done by assay method on HPLC by comparison with standard solution. The assay provided the relative amount of drug (mg/ml) in the sample solution. The results were extrapolated to represent the solubility in 900 ml of buffer solutions.
Preparation of Test solution: Compound I (100 mg) was added to various buffers (100 ml) in presence of various surfactants. The samples were sonicated for 15 minutes. Evaluation was done by assay method on HPLC by comparison with standard solution.
Mixture of 0.01M Ammonium Acetate Buffer and Acetonitrile in the ratio of 20:80% v/v.
Mixture of water and acetonitrile in the ratio of 20:80 v/v.
Column: Hypersil BDS C18, 150×4.6 mm, 5 μm
Column temperature: 25° C.

[2] = Qualitative solubility of Compound I in water and organic solvents; assay type: physicochemical
[3] = with Cetrimide, ratio (w/w) 1:10
[4] = with Cremophor EL, ratio (w/w) 1:10
[5] = with Gelucire 44/14, ratio (w/w) 1:10
[6] = with Hydroxypropyl beta-cyclodextrin, ratio (w/w) 1:10, BLD = Below limit of detection (0.01 ppm)
[7] = with Labrafil, ratio (w/w) 1:10
[8] = with Labrasol, ratio (w/w) 1:10
[9] = with Poloxamer 407, Compound I to carrier ratio (w/w) 1:1
[10] = with Sodium lauryl sulphate, ratio (w/w) 1:5, BLD = Below limit of detection (0.01 ppm)
[11] = with Tween 80, ratio (w/w) 1:10
[12] = with Tween 80, ratio (w/w) 1:30
[13] = with Vitamin E TPGS, ratio (w/w) 1:10
[14] = without hydrophilic carrier (1:0), BLD = Below limit of detection (0.01 ppm)

COc1cccc(/C=C/c2nc3sccn3c(=O)c2-c2ccc(OC(F)(F)F)cc2)c1OCC1CC1 [Compound I, 7-{(E)-2-[2-(cyclopropylmethoxy)-3-methoxyphenyl]vinyl}-6-(4-trifluoromethoxyphenyl)-5H-[1,3]thiazolo-[3,2-a]pyrimidin-5-one]
Solubility, Acetate Buffer pH 4.5 [1, 3]: 0.27 mg/900 ml | Solubility, Phosphate Buffer pH 6.8 [1, 3]: 0.45 mg/900 ml | Solubility, Simulated gastric fluid pH 1.2 [1, 3]: 0.54 mg/900 ml | Solubility, Acetate Buffer pH 4.5 [1, 4]: 2.61 mg/900 ml | Solubility, Phosphate Buffer pH 6.8 [1, 4]: 2.52 mg/900 ml | Solubility, Simulated gastric fluid pH 1.2 [1, 4]: 0.54 mg/900 ml | Solubility, Acetate Buffer pH 4.5 [1, 5]: 1.17 mg/900 ml | Solubility, Phosphate Buffer pH 6.8 [1, 5]: 0.99 mg/900 ml | Solubility, Simulated gastric fluid pH 1.2 [1, 5]: 0.09 mg/900 ml | Solubility, Acetate Buffer pH 4.5 ([1]; with HPMC, ratio (w/w) 1:5): 0.18 mg/900 ml | Solubility, Phosphate Buffer pH 6.8 ([1]; with HPMC, ratio (w/w) 1:5): 0.81 mg/900 ml | Solubility, Simulated gastric fluid pH 1.2 ([1]; with HPMC, ratio (w/w) 1:5): 0.72 mg/900 ml | Solubility, Acetate Buffer pH 4.5 [1, 6]: BLD | Solubility, Phosphate Buffer pH 6.8 [1, 6]: BLD | Solubility, Simulated gastric fluid pH 1.2 [1, 6]: BLD | Solubility, Acetate Buffer pH 4.5 [1, 7]: 0.27 mg/900 ml | Solubility, Phosphate Buffer pH 6.8 [1, 7]: 0.18 mg/900 ml | Solubility, Simulated gastric fluid pH 1.2 [1, 7]: 0.09 mg/900 ml | Solubility, Acetate Buffer pH 4.5 [1, 8]: 0.18 mg/900 ml | Solubility, Phosphate Buffer pH 6.8 [1, 8]: 0.72 mg/900 ml | Solubility, Simulated gastric fluid pH 1.2 [1, 8]: 0.36 mg/900 ml | Solubility, Acetate Buffer pH 4.5 [1, 9]: 0.18 mg/900 ml | Solubility, Phosphate Buffer pH 6.8 [1, 9]: 0.09 mg/900 ml | Solubility, Simulated gastric fluid pH 1.2 [1, 9]: 0.27 mg/900 ml | Solubility, Acetate Buffer pH 4.5 [1, 10]: BLD | Solubility, Phosphate Buffer pH 6.8 [1, 10]: BLD | Solubility, Simulated gastric fluid pH 1.2 [1, 10]: BLD | Solubility, Acetate Buffer pH 4.5 [1, 11]: 3.06 mg/900 ml | Solubility, Phosphate Buffer pH 6.8 [1, 11]: 3.69 mg/900 ml | Solubility, Simulated gastric fluid pH 1.2 [1, 11]: 0.45 mg/900 ml | Solubility, Acetate Buffer pH 4.5 [1, 12]: 8.82 mg/900 ml | Solubility, Phosphate Buffer pH 6.8 [1, 12]: 15.84 mg/900 ml | Solubility, Simulated gastric fluid pH 1.2 [1, 12]: 1.44 mg/900 ml | Solubility, Acetate Buffer pH 4.5 [1, 13]: 1.35 mg/900 ml | Solubility, Phosphate Buffer pH 6.8 [1, 13]: 1.80 mg/900 ml | Solubility, Simulated gastric fluid pH 1.2 [1, 13]: 0.63 mg/900 ml | Solubility, Acetate Buffer pH 4.5 [1, 14]: BLD | Solubility, Phosphate Buffer pH 6.8 [1, 14]: BLD | Solubility, Simulated gastric fluid pH 1.2 [1, 14]: BLD** | Solubility in acetone [2]: freely soluble | Solubility in chloroform [2]: freely soluble | Solubility in ethanol [2]: very slightly soluble | Solubility in methanol [2]: slightly soluble | Solubility in methylene dichloride [2]: freely soluble | Solubility in water ([2]; aqueous media having different pH ranging over 1.2 to 6.8): practically insoluble
